Laboratory results published in US6482609B1, “Isolated human EDG-4 receptor and polynucletide encoding said receptor” (priority 1997, dated 2002).

Assays:
[1] = target: human EDG-4 (Homo sapiens, UniProt O95136); experiment: NF-κB luciferase reporter in 293-EBNA cells, human EDG-4; type: cell-based; details: human EDG-4 (pC3-hedg4#36); 3 μM; 6 hours
Procedure: Transient Transfection Protocol for 293-EBNA (Assay 3): The protocol described in Example 11 for Assay 1 was followed except for the following changes: […] 3) 30 μl Lipofectamine Reagent (Lipofectamine Plus Kit) was diluted in 750 μl DMEM/F12. The diluted Lipofectamine was then combined with the DNA/Plus mixture and incubated at room temperature for 15 min. […] 2) Transfected cells were harvested by trypsinization and 50,000 cells per well were plated in 96-well Blackview plates coated with poly D-lysine (Becton Dickinson Labware, Cat. 40640). No cells were plated in the outside wells of the 96-well plate. […] 1) Media was removed and cells treated with compounds diluted in DMEM/F12 media. The following treatments were used for all transfections: […] 2) The cells were treated for 6 hours. 3) Luciferase assay was performed.

[2] = test system: HeLa cells; experiment: IL-8 ELISA on supernatants of treated HeLa cells; type: cell-based, human; details: for PTX sensitivity of the IL-8 response: PTX 50 ng/ml overnight pre-treatment; for IL-8 induction: concentration series up to 10 μM, 6 hours
Procedure: Procedure #1 For HeLa Cells
Cells: HeLa (adenocarcinoma, human)
Media: DMEM/F12+10%FBS adherent
1) Cells were seeded at 0.2×10^6 cells/well in 6-well plates.
2) 1.5 ml 0.5% FBS media was added to each well.
1) Made up all required solutions in 0.5% FBS media (control). Handling of […] for use in NF-κB experiments requires that sonication, commonly used to resuspend LPA, not be done; NF-κB may be activated by lipid peroxides created through vigorous frothing.
3) 1.5 ml appropriate treatments were added to each well.
5) After the specified time cell supernatants were collected into 1.5 ml eppendorf tubes, spun down at 14000 rpm for 5 minutes and stored at −20° C. for later ELISA determination.
D. Detection of Interleukin-8 (IL-8) using an IL-8 ELISA (Enzyme-Linked InimunoSorbent Assay).
1) The Quantikine Human IL-8 ImmunoAssay Kit was obtained from R&D Systems (Cat. D8050).
4) The assay procedure was followed as recommended in the kit for cell culture supernatant samples.
5) ELISA was performed on 50 μl samples of culture supernatant and duplicate samples were measured for each well. Each treatment was performed on triplicate wells.
6) Plates were read on UVmax kinetic microplate reader (Molecular Devices), set to 450 nm and correction set to 575 nm, using Wsoftmax software version 2.34.
Procedure #2 For HeLa Cells
1) Cells were seeded at 2.5×10^4 cells/well in 24-well plates.
2) 0.5 ml 0.5% FBS media was added to all wells not requiring PTX pre-treatment.
3) For wells requiring PTX; 0.5 ml 0.5% FBS media containing 50 ng/ml PTX (1 volume PTX (RBI Cat. P140): 1 volume DTT, incubate 37° C. for 30 minutes then dilute to 50 ng/ml) was added.
Follow Procedure #2 For HeLa Cells with the following exceptions:
Concentrations for LPC, LPE, LPG, LPS, sphingosine and SM used were 10, 50, 100, 1000, and 5000 nM. Concentrations for LPI, lyso-PAF and lysosulfatide used were 0.3 and 3 μM.
2) A 30 minute pre-treatment at 37° C./5%CO2 of 0.5 ml of suramin was done to all wells except control, any PTX and ET-18-OCH3 wells before step 3 of section C.

[3] = target: T1, human EDG-3 (Homo sapiens, UniProt Q99500); experiment: SRE luciferase reporter in 293-EBNA cells, EDG-3; type: cell-based; details: EDG-3 clone pC3-E3HP2; 3 μM; 6 hours
T1 construct: expressed in transfected cells; host or cells: 293-EBNA
Procedure: NE-κB activates gene expression by binding to specific DNA sequences found in the promoters of genes regulated by this inflammation-related transcription factor. […] Transient Transfection Protocol for 293-EBNA (Assay 3): The protocol described in Example 11 for Assay 1 was followed except for the following changes: […] 3) 30 μl Lipofectamine Reagent (Lipofectamine Plus Kit) was diluted in 750 μl DMEM/F12. The diluted Lipofectamine was then combined with the DNA/Plus mixture and incubated at room temperature for 15 min. […] 2) Transfected cells were harvested by trypsinization and 50,000 cells per well were plated in 96-well Blackview plates coated with poly D-lysine (Becton Dickinson Labware, Cat. 40640). No cells were plated in the outside wells of the 96-well plate. […] The following treatments were used for all transfections: […] 2) The cells were treated for 6 hours. 3) Luciferase assay was performed.

[4] = test system: human EDG-3; experiment: NF-κB luciferase reporter in 293-EBNA cells, EDG-3; type: cell-based; details: for NF-κB response, original human EDG-3 clone: original human EDG-3 clone (pC3-hedg3)
Procedure: 2) 3 μg NFκB-tk-p4Luc reporter DNA and 3 μg pC3-hedg1, pC3-hedg3, pC3-redg4, pC3-hedg5 or pcDNA3 DNA was diluted in 240 μl OPTI-MEM (Gibco; Cat. 31985-062)
Transient Transfection Protocol for 293-EBNA (Assay 3):
The protocol described in Example 11 for Assay 1 was followed except for the following changes:
2) SRE Cotransfection: 0.5 μg of 2XSREtk-p4Luc-zeo reporter DNA and 3.5 μg pcDNA3, EDG-1, EDG-3 (pC3-hE3HP2, different from the clone used in Assay 2 of Example 11) or the newly cloned human EDG-4 (pC3-hedg4#36); NF-κB Cotransfection: 2 μg 6XNFκBtk-p4Luc-zeo reporter DNA and 2.0 μg pcDNA3, EDG-1, EDG-3 (pC3-hE3HP2), or EDG-4 (pC3-hedg4#36). Expression plasmid and reporter plasmid DNA samples were combined and diluted in 750 μl of DMEM/F12 (serum free media) and 20 μl Plus Reagent (Lipofectamine Plus Kit, Life Technologies Cat. 10964-013), and incubated at room temperature for 15 min.
3) 30 μl Lipofectamine Reagent (Lipofectamine Plus Kit) was diluted in 750 μl DMEM/F12. The diluted Lipofectamine was then combined with the DNA/Plus mixture and incubated at room temperature for 15 min.
6) The transfection medium was replaced with serum-free DMEM/F12 for cells transfected with 2XSREtk-p4Luc-zeo reporter DNA and with DMEM/F12 plus 10% FBS for cells tansfected with 6XNFκBtk-p4Luc-zeo reporter DNA.
2) Transfected cells were harvested by trypsinization and 50,000 cells per well were plated in 96-well Blackview plates coated with poly D-lysine (Becton Dickinson Labware, Cat. 40640). No cells were plated in the outside wells of the 96-well plate.
1) Media for cells transfected with 6XNFκBtk-p4Luc-zeo reporter DNA was replaced with DMEM/F12 plus 0.5%FBS.
1) Media was removed and cells treated with compounds diluted in DMEM/F12 media.
2) The cells were treated for 6 hours.
3) Luciferase assay was performed.

T1 sequence (Q99500 whole entry): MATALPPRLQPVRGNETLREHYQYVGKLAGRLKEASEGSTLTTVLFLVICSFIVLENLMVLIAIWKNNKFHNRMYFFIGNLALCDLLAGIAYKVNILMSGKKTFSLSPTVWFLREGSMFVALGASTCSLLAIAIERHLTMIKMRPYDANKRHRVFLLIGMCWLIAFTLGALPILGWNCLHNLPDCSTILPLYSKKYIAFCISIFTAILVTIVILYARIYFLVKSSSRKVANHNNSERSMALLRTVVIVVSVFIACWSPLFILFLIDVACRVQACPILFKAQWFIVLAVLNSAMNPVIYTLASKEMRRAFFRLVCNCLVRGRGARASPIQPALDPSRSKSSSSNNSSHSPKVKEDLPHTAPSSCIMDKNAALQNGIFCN

| SMILES | Induction of the NF-κB reporter gene [1] | PTX sensitivity of the IL-8 response [2] | IL-8 induction [2] | SRE response [3] | Induction of the NF-κB reporter gene compared to untreated controls ([4]; EDG-3 clone pC3-E3HP2, 3 μM, 6 hours) | NF-κB response, original human EDG-3 clone [4] | IL-8 production at 0.3 μM ([2]; 0.3 μM, 6 hr) | IL-8 response ([2]; 1 and 10 μM, 1, 6 or 24 hours) | Lowest concentration that reliably induces IL-8 ([2]; repeated experiments) |
| --- | --- | --- | --- | --- | --- | --- | --- | --- | --- |
| CCCCCCCCCCCCC/C=C/[C@@H](O)[C@@H](N)COP(=O)([O-])OCC[N+](C)(C)C [SPC, sphingosylphosphorylcholine] | 9 fold | PTX-sensitive | induce IL-8 in HeLa cells in a concentration-dependent manner | 11 fold | about 8 fold | did not produce a NF-κB response |  |  |  |
| CCCCCCCCCCCCC/C=C/[C@@H](O)[C@@H](N)COP(=O)(O)O [S1P, sphingosine-1-phosphate] | 4.5 fold | PTX-sensitive | induce IL-8 in HeLa cells in a concentration-dependent manner | 12 fold |  | did not produce a NF-κB response | near plateau values | time- and concentration-dependent IL-8 response | about 30 nM |
